According to patent US20080275063A1, “Inhibitors of protein kinases” (priority 2007, published 2008):

Experiments:
[1] = system: Tau protein at Serin396 in differentiated SH-SY5Y cells; experiment: In vitro SH-SY5Y assay, tau phosphorylation; assay type: cell-based, human; conditions: RA- and BDNF-differentiated SH-SY5Y cells, 90-120 min incubation, Western Blot or ELISA
From the text: Abnormal tau phosphorylation and deregulated CDK5/p35 activity are closely linked to each other and represent hallmarks of neurodegenerative diseases such as Alzheimer's disease, Parkinson's disease or Amyotrophic lateral sclerosis. The human neuroblastoma cell line SH-SY5Y can be utilized as an in vitro model to investigate CDK5 function and the efficacy of CDK5 specific inhibitors. SH-SY5Y cells express tau protein which harbors various phosphorylation sites known to be phosphorylated by several kinases including CDK5. SH-SY5Y cells can be differentiated into neuron-like cells by exposure to 10 μM all trans-retinoic acid for 3 days and subsequent exposure to 50 ng/ml human recombinant brain-derived neurotrophic factor for 3-5 days, thereby upregulating neuronal markers, including tau protein. In addition CDK5 and p35 protein levels were increased during differentiation. […]
Concentrations of total tau, pS396 tau and pT231 tau within the cell culture lysates are measured by using commercial ELISA Kits (BioSource: human total tau: KHB0042; human pS396 tau: KHB7031; human pT231 tau: KHB7051) according to the manufacturers instructions or by using Western Blots probing with total and phospho-specific antibodies (antibodies: total tau: Santa Cruz, sc-21796; pS396 tau: Santa Cruz, sc-12414; pT231 tau, AT180: Pierce Endogen, MN1040; pS202 tau: AT8: Pierce Endogen, MN1020). […]

Row | melting point [°C] | Compound | effect on Tau phosphorylation at Serin396 [1]
1 | 213.5 to 215.1 | CCOc1ccccc1-c1cc(Nc2ccc(CS(N)(=O)=O)cc2)ncn1 [Compound 6, {4-[6-(2-Ethoxy-phenyl)-pyrimidin-4-ylamino]-phenyl}-methanesulfonamide] | –
2 | – | NS(=O)(=O)Cc1ccc(Nc2cc(-c3ccccc3OCc3ccccc3)ncn2)cc1 [Compound 8, {4-[6-(2-Benzyloxy-phenyl)-pyrimidin-4-ylamino]-phenyl}-methanesulfonamide] | significant inhibitory effect
3 | 149.2 to 150.8 | COCCCNS(=O)(=O)Cc1cccc(Nc2cc(-c3ccccc3OC)ncn2)c1 [Reference compound 3, C-{3-[6-(2-methoxy-phenyl)-pyrimidin-4-ylamino]-phenyl}-N-(3-methoxy-propyl)-methanesulfonamide] | –
